The values that follow come from patent US6656509B1, “Combination of selenium-containing compounds with cytostatics” (Biosyn Arzneimittel GmbH, priority 1998, dated 2003).

For assay [1], the system named is pancreatic cancer xenograft PAXF 546. Nature of the assay: clonogenic assay, single agents and combination studies. In kind it is cell-based, human. To be noted: observed; X261, X295. How it is done:
(§1) The cell mixture was passed through sieves of 200 μm and 50 μm mesh size and washed thereafter twice with PBS. The percentage of viable cells was determined in a Neubauer counting chamber using trypan blue exclusion.
(§2) 8×10^3 to 1,6×10^4 cells were added to 0.2 ml of the same culture medium together with 0.4% agar and placed in already coated 24-multiwell dishes. Test substances were applied by continuous exposure (drug overlay) in 0.2 ml medium. Every dish included six control wells containing the vehicle- and drug-treated groups in triplicate at six concentrations.
(§3) Cultures were incubated at 37° and 7% CO2 in a humidified atmosphere for 5 to 15 days (depending on the doubling time of the tumor stem cells) and monitored for colony growth using an inverted microscope. Within this period, in vitro tumor growth led to the formation of colonies with a diameter of ≧50 μm. At the time of maximum colony formation counts were performed with an automatic image analysis system (OMNICOM Fas IV, Biosys GmbH). […] Drug effects were expressed in terms of the percentage of surviving cells, obtained by comparison of the mean number of colonies in the treated plates with the mean colony count of the untreated controls (test-versus-control-group value, T/C=colony countTreated Group*100/colony countControl Group).
(§4) Coefficient of variation in the control group ≦50%. IC50 and IC70 values were determined by plotting compound concentration versus cell survival rate. Mean IC50 and IC70 values were calculated according to the formula: [formula]
(§5) with x=specific tumor xenograft and n=total number of tumor xenografts studied. If an IC50 or IC70 value could not be determined within the examined dose range, the lowest or highest concentration studied was used for the calculation.
(§6) Each experiment included the chemotherapeutic agents in 6 concentrations, selenium in 2 concentrations (3 and 30 μM), and the combination of all doses with selenium at 3 and 30 μM. All compounds and combinations were studied in triplicates. […] Each experiment was performed twice.
(§7) T/Cexpectd(A+B)=T/C(A)×T/C(B)/100
(§8) For a zero-interactive drug combination (additivity of drug effects) T/Cexpected(A+B)[…]T/Cobserved(A+B). A drug combination is synergistic if T/Cobserved(A+B) is statistically significant[…]T/Cexpected(A+B). Statistical significance was determined by the T-test.

Assay [2] relates to pancreatic cancer xenograft PAXF 736. The assay is described as above. In kind it is cell-based, human. To be noted: (X261, X295). How it is done:
as §1, §2, §3, §4, §5, §6, §7, §8

On to `Nc1ccn([C@@H]2O[C@H](CO)[C@@H](O)C2(F)F)c(=O)n1` [Gemcitabine], for which, in assay [1], the “T/C in % at a gemcitabine concentration (μM)” value turned out to be 85 ± 15%, the “T/C in % at a gemcitabine concentration (μM) of 1.0” value was 30 ± 6%, the “T/C in % at a gemcitabine concentration (μM) of 1 × 10^−1” value amounted to 48 ± 8% and the “T/C in % at a gemcitabine concentration (μM) of 1 × 10^−2” value is 61± 11%. In assay [1], the “T/C in % at a gemcitabine concentration (μM) of 1 × 10^−3” value came to 83 ± 12%, the “T/C in % at a gemcitabine concentration (μM) of 1 × 10^−4” value worked out at 80 ± 12% and the “T/C in % at a gemcitabine concentration (μM) of 1 × 10^−5” value came to 73 ± 20%. In assay [2] (gemcitabine alone), the “T/C in % at a gemcitabine concentration (μM) of 1 × 10^−1” value is on record as 30 ± 8%, the “T/C in % at a gemcitabine concentration (μM) of 1 × 10^−2” value is given as 71± 10%, the “T/C in % at a gemcitabine concentration (μM) of 1 × 10^−3” value is 77 ± 13% and the “T/C in % at a gemcitabine concentration (μM) of 1 × 10^−4” value was 84 ± 12%. Further, in assay [2] (gemcitabine alone), the “T/C in % at a gemcitabine concentration (μM) of 1 × 10^−5” value was determined as 78 ± 14% and the “T/C in % at a gemcitabine concentration (μM) of 1 × 10^−6” value came to 89 ± 11%.

For the compound `CO[C@@]12[C@H](COC(N)=O)C3=C(C(=O)C(C)=C(N)C3=O)N1C[C@@H]1N[C@@H]12` [Mitomycin C], in assay [1], the “T/C in % at a mitomycin C concentration (μM)” value was 87 ± 11%, the “T/C in % at a mitomycin C concentration (μM) of 1.0” value is listed as 5 ± 2%, the “T/C in % at a mitomycin C concentration (μM) of 1 × 10^−1” value stood at 57 ± 8% and the “T/C in % at a mitomycin C concentration (μM) of 1 × 10^−2” value was 80± 12%. Further, in assay [1], the “T/C in % at a mitomycin C concentration (μM) of 1 × 10^−3” value was found to be 70 ± 13%, the “T/C in % at a mitomycin C concentration (μM) of 1 × 10^−4” value turned out to be 70 ± 10% and the “T/C in % at a mitomycin C concentration (μM) of 1 × 10^−5” value is reported as 84 ± 14%. For the same compound, in assay [2] (mitomycin C alone), the “T/C in % at a mitomycin C concentration (μM) of 1 × 10^−1” value amounted to 11 ± 7%, the “T/C in % at a mitomycin C concentration (μM) of 1 × 10^−2” value was 30± 7%, the “T/C in % at a mitomycin C concentration (μM) of 1 × 10^−3” value stood at 46 ± 8% and the “T/C in % at a mitomycin C concentration (μM) of 1 × 10^−4” value came to 56 ± 11%. In assay [2] (mitomycin C alone), the “T/C in % at a mitomycin C concentration (μM) of 1 × 10^−5” value is 58 ± 10% and the “T/C in % at a mitomycin C concentration (μM) of 1 × 10^−6” value is 77 ± 13%.
